Experimental data taken from US6649365B1, “Indolamine derivatives for detecting peptidase activity in culture media” (Bio Merieux, priority 1998, dated 2003).

What was measured:
[1] = test system: E. coli; test: Colony colour on gelled medium of Example 3; type: cell-based, Escherichia coli; design: key: —: Absence of coloration; Brown = Colony colour; settings: 37° C.
Protocol: (§1) L-Pro-BIA, pyroglutamyl-BIA (Pyr-BIA) or Ala-Phe-Pro-BIA is added to this medium. These various media, which are distributed into Petri dishes, are inoculated with various microorganisms: E. coli, K. pneumoniae, C. freundii, p. aeruginosa, S. agalactiae, E. faecium, S. pyogenes, S. epidermidis, C. albicans and C. tropicalis. The dishes are incubated at 37° C. for 48 hours, and the colonies formed are examined visually after incubation for 24 and 48 hours. The colour was noted.

[2] = test system: K. pneumoniae; test: Colony colour on gelled medium of Example 3; type: cell-based, Klebsiella Pneumoniae; design: key: —: Absence of coloration; Brown = Colony colour; settings: 37° C.
Protocol: as §1

[3] = test system: C. freundii; test: Colony colour on gelled medium of Example 3; type: cell-based, Citrobacter freundii; design: key: —: Absence of coloration; Brown = Colony colour; settings: 37° C.
Protocol: as §1

[4] = test system: P. aeruginosa; test: Colony colour on gelled medium of Example 3; type: cell-based, Pseudomonas aeruginosa; design: key: —: Absence of coloration; Brown = Colony colour; settings: 37° C.
Protocol: as §1

[5] = test system: S. agalactiae; test: Colony colour on gelled medium of Example 3; type: cell-based, Streptococcus agalactiae; design: key: —: Absence of coloration; Brown = Colony colour; settings: 37° C.
Protocol: as §1

[6] = test system: E. faecium; test: Colony colour on gelled medium of Example 3; type: cell-based, Enterococcus faecium; design: key: —: Absence of coloration; Brown = Colony colour; settings: 37° C.
Protocol: as §1

[7] = test system: S. pyogenes; test: Colony colour on gelled medium of Example 3; type: cell-based, Streptococcus pyogenes; design: key: —: Absence of coloration; Brown = Colony colour; settings: 37° C.
Protocol: as §1

[8] = test system: Pseudomonas aeruginosa; test: Colony colour or fluorescence on gelled medium of Example 1; type: cell-based; settings: medium of Example 1, substrate 200 mg/l, 37° C., 24 or 48 hours, ambient light and UV 365 nm
Protocol: (§2) L-Pro-BIA, or 7-L-prolylamino-4-methylcoumarin (L-Pro-AMC) is added to this medium at a concentration of 200 mg/l. The various media obtained, which are distributed in Petri dishes, are inoculated with microorganisms. The dishes were incubated at 37° C. for 48 hours. The colonies formed were examined visually in ambient light and under a UV lamp (wavelength=365 nm) after incubation for 24 and 48 hours. The colour or the presence of fluorescence was noted. The microorganisms studied were: Pseudomonas aeruginosa and Candida albicans.

[9] = test system: Escherichia coli; test: as above; type: cell-based; settings: medium of Example 1, substrate 200 mg/L, 24 or 48 hours
[10] = test system: Klebsiella Pneumoniae; test: as above; type: cell-based; settings: medium of Example 1, substrate 200 mg/L, 24 or 48 hours
[11] = test system: Citrobacter freundii; test: as above; type: cell-based; settings: medium of Example 1, substrate 200 mg/L, 24 or 48 hours
[12] = test system: Streptococcus agalactiae; test: as above; type: cell-based; settings: medium of Example 1, substrate 200 mg/L, 24 or 48 hours
[13] = test system: Enterococcus faecium; test: as above; type: cell-based; settings: medium of Example 1, substrate 200 mg/L, 24 or 48 hours
[14] = test system: Streptococcus pyogenes; test: as above; type: cell-based; settings: medium of Example 1, substrate 200 mg/L, 24 or 48 hours
[15] = test system: Staphylococcus epidermidis; test: as above; type: cell-based; settings: medium of Example 1, substrate 200 mg/L, 24 or 48 hours
[16] = test system: P. aeruginosa; test: Coloration or fluorescence in phosphate buffer, microtitration plates (Example 2); type: cell-based, Pseudomonas aeruginosa; settings: 0.1 M phosphate buffer pH 7.3, substrate 400 mg/L, 37° C., 24 to 48 hours
Protocol: (§3) L-Pro-BIA or L-Pro-AMC is added, at the concentration of 400 mg/L, to a 0.1 M phosphate buffer, pH 7.3, at 25° C. The medium obtained is distributed into the wells of microtitration plates which are inoculated with suspensions of P. aeruginosa or of C. albicans. The plates are incubated for 24 hours at 37° C. The wells are examined visually in ambient light and under a UV lamp, after incubation for 24 to 48 hours.

[17] = test system: E. coli; test: as above; type: cell-based, Escherichia coli; settings: 0.1 M phosphate buffer pH 7.3, 24 to 48 hours
[18] = test system: K. pneumoniae; test: as above; type: cell-based, Klebsiella Pneumoniae; settings: 0.1 M phosphate buffer pH 7.3, 24 to 48 hours
[19] = test system: C. freundii; test: as above; type: cell-based, Citrobacter freundii; settings: 0.1 M phosphate buffer pH 7.3, 24 to 48 hours
[20] = test system: S. agalactiae; test: as above; type: cell-based, Streptococcus agalactiae; settings: 0.1 M phosphate buffer pH 7.3, 24 to 48 hours
[21] = test system: E. faecium; test: as above; type: cell-based, Enterococcus faecium; settings: 0.1 M phosphate buffer pH 7.3, 24 to 48 hours
[22] = test system: S. pyogenes; test: as above; type: cell-based, Streptococcus pyogenes; settings: 0.1 M phosphate buffer pH 7.3, 24 to 48 hours
[23] = test system: genera Escherichia, Klebsiella, Citrobacter, Pseudomonas, Enterococcus, Staphylococcus and Streptococcus; test: Preliminary tests in the medium described in Example 1; type: cell-based; settings: for leucine-aminopeptidase or proline-aminopeptidase activity demonstrated: substrate added to the medium of Example 1; for revelation of a peptidase activity: medium of Example 1 with addition of the reagents proposed by Lojda and Havrankova (tetrazolium salt and phenazine methosulphate)
Protocol: In the course of the studies which lead to the present invention, an investigation was, carried out as to whether it was possible to use this enzymatic substrate for detecting microorganisms cultured, in particular, on gelled media. During preliminary tests, L-Leu-BIA or L-Pro-BIA was added to a medium currently used to search for osidases, which is described in Example 1 below.
Similarly, in this medium, with osidase substrates (5-bromo-4-chloro-3-indolyl-β-D-galactoside and 6-chloro-3-indolyl-β-D-glucuronide), the β-galactos-idase and β-glucuronidase activities of the microorganisms can be detected.

[24] = test system: Candida albicans; test: Colony colour or fluorescence on gelled medium of Example 1; type: cell-based; settings: medium of Example 1, substrate 200 mg/l, 37° C., 24 or 48 hours, ambient light and UV 365 nm
Protocol: as §2

[25] = test system: C. albicans; test: Coloration or fluorescence in phosphate buffer, microtitration plates (Example 2); type: cell-based, Candida albicans; settings: 0.1 M phosphate buffer pH 7.3, substrate 400 mg/L, 37° C., 24 to 48 hours
Protocol: as §3

[26] = test system: C. albicans; test: Colony colour on gelled medium of Example 3; type: cell-based, Candida albicans; design: key: —: Absence of coloration; Brown = Colony colour; settings: 37° C.
Protocol: as §1

[27] = test system: C. tropicalis; test: Colony colour on gelled medium of Example 3; type: cell-based; design: key: —: Absence of coloration; Brown = Colony colour; settings: 37° C.
Protocol: as §1

[28] = test system: S. epidermidis; test: Colony colour on gelled medium of Example 3; type: cell-based, Staphylococcus epidermidis; design: key: —: Absence of coloration; Brown = Colony colour; settings: 37° C.
Protocol: as §1

With `CC(N)C(=O)NC(Cc1ccccc1)C(=O)N1CCCC1C(=O)Nc1c[nH]c2ccc(Br)cc12` (stereo not drawn) [Ala-Phe-Pro-BIA] the Colony colour ([1]; 24 H) was “Brown^2”, the Colony colour ([1]; 48 H) was “Brown” and the Colony colour ([2]; 24 H) was “Brown”. For the same compound, the Colony colour ([2]; 48 H) was “Brown”, the Colony colour ([3]; 24 H) was “Brown” and the Colony colour ([3]; 48 H) was “Brown”. The Colony colour ([4]; 24 H) was “Brown”, the Colony colour ([4]; 48 H) was “Brown” and the Colony colour ([5]; 24 H) was “Brown”. The Colony colour ([5]; 48 H) was “Brown”, the Colony colour ([6]; 24 H) was “—” and the Colony colour ([6]; 48 H) was “—”. The Colony colour ([7]; 24 H) was “Brown” and the Colony colour ([7]; 48 H) was “Brown”.
`C[C@H](N)C(=O)Nc1c[nH]c2ccc(Br)cc12` [L-Ala-BIA] was tested, and the “peptidase activity revealed by colour or fluorescence of the colonies” value (“peptidase activity revealed … of the colonies” for short) [8] was “no coloration”, the “peptidase activity revealed … of the colonies” value [9] was “no coloration” and the “peptidase activity revealed … of the colonies” value [10] was “no coloration”. The “peptidase activity revealed … of the colonies” value [11] was “no coloration”, the “peptidase activity revealed … of the colonies” value [12] was “no coloration” and the “peptidase activity revealed … of the colonies” value [13] was “no coloration”. The “peptidase activity revealed … of the colonies” value [14] was “no coloration” and the “peptidase activity revealed … of the colonies” value [15] was “no coloration”.
In the case of `Cc1cc(=O)oc2cc(NC(=O)[C@@H](N)CC(C)C)ccc12` [L-Leu-AMC, 7-L-leucylamino-4-methylcoumarin], the “peptidase activity revealed by coloration or fluorescence of the wells” value (“peptidase activity revealed … of the wells” for short) [16] is reported as “detected, by emission of fluorescence”, the “peptidase activity revealed … of the wells” value [17] is reported as “detected, by emission of fluorescence” and the “peptidase activity revealed … of the wells” value [18] is reported as “detected, by emission of fluorescence”. The “peptidase activity revealed … of the wells” value [19] was “detected, by emission of fluorescence”, the “peptidase activity revealed … of the wells” value [20] was “detected, by emission of fluorescence” and the “peptidase activity revealed … of the wells” value [21] was “detected, by emission of fluorescence”. For the same compound, the “peptidase activity revealed … of the wells” value [22] was “detected, by emission of fluorescence” and the “leucine-aminopeptidase or proline-aminopeptidase activity demonstrated” value [23] was “a fluorescence”.
With `CC(C)C[C@H](N)C(=O)Nc1c[nH]c2ccc(Br)cc12` [L-Leu-BIA, 3-L-leucylamino-5-bromoindole] the “peptidase activity revealed … of the colonies” value [8] was “no coloration”, the “peptidase activity revealed … of the colonies” value [9] was “no coloration” and the “peptidase activity revealed … of the colonies” value [10] was “no coloration”. For the same compound, the “peptidase activity revealed … of the colonies” value [11] was “no coloration”, the “peptidase activity revealed … of the colonies” value [12] was “no coloration” and the “peptidase activity revealed … of the colonies” value [13] was “no coloration”. The “peptidase activity revealed … of the colonies” value [14] was “no coloration”, the “peptidase activity revealed … of the colonies” value [15] was “no coloration” and the “peptidase activity revealed … of the wells” value [16] was “did not make it possible to detect”. The “peptidase activity revealed … of the wells” value [17] was “did not make it possible to detect”, the “peptidase activity revealed … of the wells” value [18] was “did not make it possible to detect” and the “peptidase activity revealed … of the wells” value [19] was “did not make it possible to detect”. The “peptidase activity revealed … of the wells” value [20] was “did not make it possible to detect”, the “peptidase activity revealed … of the wells” value [21] was “did not make it possible to detect” and the “peptidase activity revealed … of the wells” value [22] was “did not make it possible to detect”. For the same compound, the “revelation of a peptidase activity” value [23] was “without allowing the revelation of a peptidase activity” and the “leucine-aminopeptidase or proline-aminopeptidase activity demonstrated” value [23] was “not possible to demonstrate”.
For `Cc1cc(=O)oc2cc(NC(=O)[C@@H]3CCCN3)ccc12` [L-Pro-AMC, 7-L-prolylamino-4-methylcoumarin], the “peptidase activity revealed … of the colonies” value [24] was “emission of a fluorescence”, the “peptidase activity revealed … of the colonies” value [8] was “emission of a fluorescence” and the “peptidase activity revealed … of the wells” value [16] was “possible to reveal an L-Pro-aminopeptidase activity”. The “peptidase activity revealed … of the wells” value [25] was “possible to reveal an L-Pro-aminopeptidase activity” and the “leucine-aminopeptidase or proline-aminopeptidase activity demonstrated” value [23] was “a fluorescence”.
With `O=C(Nc1c[nH]c2ccc(Br)cc12)[C@@H]1CCCN1` [L-Pro-BIA] the “peptidase activity revealed … of the colonies” value [24] was “no coloration”, the “peptidase activity revealed … of the colonies” value [8] was “no coloration” and the “peptidase activity revealed … of the wells” value [16] was “No coloration”. For the same compound, the “peptidase activity revealed … of the wells” value [25] was “No coloration”, the Colony colour ([1]; 24 H) was “—^1” and the Colony colour ([1]; 48 H) was “—”. For the same compound, the Colony colour ([2]; 24 H) was “—”, the Colony colour ([2]; 48 H) was “—” and the Colony colour ([3]; 24 H) was “—”. The Colony colour ([3]; 48 H) was “—”, the Colony colour ([4]; 24 H) was “Brown” and the Colony colour ([4]; 48 H) was “Brown”. For the same compound, the Colony colour ([26]; 24 H) was “Brown”, the Colony colour ([26]; 48 H) was “Brown” and the Colony colour ([27]; 24 H) was “—”. The Colony colour ([27]; 48 H) was “—”, the “revelation of a peptidase activity” value [23] was “without allowing the revelation of a peptidase activity” and the “leucine-aminopeptidase or proline-aminopeptidase activity demonstrated” value [23] was “not possible to demonstrate”.
In the case of `O=C1CCC(C(=O)Nc2c[nH]c3ccc(Br)cc23)N1` (centres unmarked) [Pyr-BIA, pyroglutamyl-BIA], the Colony colour ([1]; 24 H) is reported as “—”, the Colony colour ([1]; 48 H) is reported as “—” and the Colony colour ([2]; 24 H) is reported as “—”. For the same compound, the Colony colour ([2]; 48 H) was “Brown”, the Colony colour ([3]; 24 H) was “—” and the Colony colour ([3]; 48 H) was “Brown”. For the same compound, the Colony colour ([4]; 24 H) was “Brown”, the Colony colour ([4]; 48 H) was “Brown” and the Colony colour ([5]; 24 H) was “—”. The Colony colour ([5]; 48 H) was “—”, the Colony colour ([6]; 24 H) was “Brown” and the Colony colour ([6]; 48 H) was “Brown”. The Colony colour ([7]; 24 H) was “Brown”, the Colony colour ([7]; 48 H) was “Brown” and the Colony colour ([28]; 24 H) was “—”. For the same compound, the Colony colour ([28]; 48 H) was “—”.
